Assay results published in patent publication EP4721746A1, “TREATMENT OF MALIGNANT TUMOR” (SymBio Pharmaceuticals Limited, priority 2023, dated 2024).

Assays:
[1] = test system: NK/T-cell lymphoma cells (NK-S1); assay: In vivo study, NSG mice inoculated with NK-S1
Method: (§1) 0.5 x 10^6 cells of NK-S1 were inoculated into 6-week-old female NSG mice, and BCV or a control solvent was administered intraperitoneally at a dosage of 40 mg/kg twice weekly. Tumor measurements were recorded twice weekly until the tumor size in the control group reached approximately 2000 mm^3. Mice were euthanized according to the IACUC guidelines. The tumor sizes of the experimental group and the control group (n=8 per group) were averaged at each time point (Days 1, 5, 8, 12, and 15) and compared statistically. Throughout the experiment, signs of toxicity including diarrhea and weight loss were monitored.

[2] = test system: T-cell lymphoma cell lines; assay: CellTiter-Glo 2.0 cell viability assay, T-cell lymphoma cell lines; assay type: cell-based; settings: 11 T-cell lymphoma cell lines; Fig. 9
Method: The effect of BCV on the viability of 11 different T-cell lymphoma cell lines was examined. Cell viability was quantified using Promega CellTiter-Glo(registered trademark) 2.0 Cell Viability Assay (Promega, Madison, Wisconsin, USA) according to the manufacturer's protocol. Specifically, cells were plated in a 96-well plate at a concentration of 2×10^3 cells in 100 µL of culture medium, and the drug was added at each concentration. After each time point, Promega CellTiter-Glo(registered trademark) 2.0 Cell Viability Assay reagent was added to the wells and incubated at room temperature for 10 minutes, and subsequently, absorbance at 480 nm was measured using a Tecan M200 Infinite 96-well plate reader and iControl software 1.6 (Tecan, Männedorf, Switzerland). Cell viability was calculated as a percentage of a control absorbance. The growth-inhibitory effect was analyzed by generating a dose-response curve as a plot of the percentage of viable cells against the drug concentration, and their IC50s were estimated using GraphPad Prism version 8.0.2 (GraphPad Software). All reactions were performed in triplicate.

Z4739 cells = assay: Western blotting of lysates of BCV-treated Z4739 cells; assay type: cell-based; settings: Z4739 treated with 0.1 and 1 µg/mL of BCV; Western blot, Fig. 13
Method: Lysates of Z4739 cells treated with 0.1 and 1 µg/mL of BCV were separated by SDS-PAGE using 4-15% Mini-PROTEAN™ TGX Stain-Free™ Protein Gels (Bio-Rad Laboratories, Hercules, CA, USA), and the separated components were transferred to a 0.2 µm PVDF membrane (Bio-Rad Laboratories, Hercules, California, USA). After blocking for 1 hour in a TBST solution (50 mM Tris/HCl, pH 7.4, 150 mM NaCl, 0.1% Tween-20) containing 5% skimmed milk powder (Bio-Rad Laboratories, Hercules, CA, USA) or 5% bovine serum albumin (Sigma-Aldrich, Darmstadt, Germany), the membrane was exposed to respective primary antibodies overnight at 4°C with gentle shaking. Furthermore, exposure to an HRP-conjugated anti-rabbit or anti-mouse antibody (Cytiva, Washington D.C., USA) was performed for 1 hour, and finally, chemiluminescent detection was performed using a SuperSignal Substrate Western Blotting Kit (Thermo Fisher Scientific, MA, USA) and imaged on a ChemiDoc™ XRS+ system (Bio-Rad Laboratories, Hercules, California, USA) using Image Lab™ software.

[3] = test system: NK/T-cell lymphoma cell lines; assay: CellTiter-Glo 2.0 cell viability assay, NK/T-cell lymphoma cell lines; assay type: cell-based; settings: 11 NK/T-cell lymphoma cell lines; Fig. 1
Method: The effect of BCV on cell viability was examined in 11 different NK/T-cell lymphoma cell lines. Cell viability was quantified using Promega CellTiter-Glo(registered trademark) 2.0 Cell Viability Assay (Promega, Madison, Wisconsin, USA) according to the manufacturer's protocol. Specifically, cells were plated in a 96-well plate at a concentration of 2×10^3 cells in 100 µL of culture medium, and the drug (BCV) was added at each concentration. After each time point, Promega CellTiter-Glo (registered trademark) 2.0 Cell Viability Assay reagent was added to the wells and incubated at room temperature for 10 minutes, and subsequently, absorbance at 480 nm was measured using a Tecan M200 Infinite 96-well plate reader and iControl software 1.6 (Tecan, Männedorf, Switzerland). Cell viability was calculated as a percentage of the control absorbance. The growth-inhibitory effect was analyzed by generating a dose-response curve as a plot of the percentage of viable cells against the drug concentration, and their IC50s were estimated using GraphPad Prism version 8.0.2 (GraphPad Software). All reactions were performed in triplicate.

[4] = test system: B-cell lymphoma cells (OCI-LY19); assay: In vivo study, NSG mice inoculated with OCI-LY19
Method: as §1, with “of OCI-LY19” for “of NK-S1”, “recorded at each time point (Days 1, 5, 6, and 7)” for “recorded twice weekly”, “approximately 2500” for “approximately 2000”, “sizes and weights” for “sizes”, “group (n=5” for “group (n=8”, “averaged on Day 7” for “averaged at each time point (Days 1, 5, 8, 12, and 15)”

Z4739 cell line = assay: Whole transcriptome sequencing and GSEA of BCV-treated Z4739 cell line; assay type: cell-based; settings: Z4739 treated with 0.1 and 1 µg/mL of BCV
Method: The effect of BCV on the gene expression of a T-cell lymphoma cell line was examined. Whole transcriptome sequencing of the Z4739 cell line treated with 0.1 and 1 µg/mL of BCV was performed, and Gene set enrichment analysis (GSEA) was performed using the Molecular Signatures Database (MSigDB) Hallmark gene set. […] Individual gene expression profiles (IFNB1, IFNY, CCL5, CXCL10, MYC) obtained from the whole transcriptome sequencing results were expressed as the number of transcripts detected per million reads.

[5] = test system: B-cell lymphoma cell lines; assay: CellTiter-Glo 2.0 cell viability assay, B-cell lymphoma cell lines; assay type: cell-based; settings: 19 B-cell lymphoma cell lines; Fig. 14
Method: The effect of BCV on cell viability was examined in 19 different B-cell lymphoma cell lines and a CML cell line (K-562) as a control. Cell viability was quantified using Promega CellTiter-Glo(registered trademark) 2.0 Cell Viability Assay (Promega, Madison, Wisconsin, USA) according to the manufacturer's protocol. Specifically, cells were plated in a 96-well plate at a concentration of 2×10^3 cells in 100 µL of culture medium, and the drug (BCV) was added at each concentration. After each time point, Promega CellTiter-Glo(registered trademark) 2.0 Cell Viability Assay reagent was added to the wells and incubated at room temperature for 10 minutes, and subsequently, absorbance at 480 nm was measured using a Tecan M200 Infinite 96-well plate reader and iControl software 1.6 (Tecan, Männedorf, Switzerland). Cell viability was calculated as a percentage of a control absorbance. The growth-inhibitory effect was analyzed by generating a dose-response curve as a plot of the percentage of viable cells against the drug concentration, and their IC50s were estimated using GraphPad Prism version 8.0.2 (GraphPad Software). All reactions were performed in triplicate.

[6] = test system: T-cell lymphoma cells (Z4739); assay: In vivo study, NSG mice inoculated with Z4739
Method: as §1, with “of Z4739” for “of NK-S1”, “recorded at each time point (Days 4, 7, 11, 18, and 21)” for “recorded twice weekly”, “approximately 2500” for “approximately 2000”, “sizes and weights” for “sizes”, “group (n=5” for “group (n=8”, “averaged on Day 21” for “averaged at each time point (Days 1, 5, 8, 12, and 15)”

SMILES: CCCCCCCCCCCCCCCCOCCCOP(=O)(O)CO[C@H](CO)Cn1ccc(N)nc1=O [BCV, [(2S)-1-(4-amino-2-oxopyrimidin-1-yl)-3-hydroxypropan-2-yl]oxymethyl-(3-hexadecoxypropoxy)phosphinic acid]
- animal's health status ([1]; NK-S1 in NSG mice, 40 mg/kg intraperitoneally twice weekly): good
- enlargement of lymphoma (tumor size) ([1]; NK-S1 in NSG mice, 40 mg/kg intraperitoneally twice weekly, Days 1-15, Figs. 2A-D): significantly suppressed
- signs of toxicity: diarrhea ([1]; mouse, in vivo, ip, 40 mg/kg): no diarrhea observed
- Sensitivity to BCV [2]: high in all cell lines
- viability of T-cell lymphoma cells [2]: decreased
- DNA damage (phospho-H2AX) (Z4739 cells): increase
- MYC protein (Z4739 cells): decrease
- PD-L1 (Z4739 cells): increase
- apoptosis indicators (cleaved PARP, cleaved caspase-3) (Z4739 cells): increase
- cell cycle-related indicators (phospho-CHK1 Ser317/Ser345) (Z4739 cells): increase
- Sensitivity to BCV [3]: varied for each cell line
- viability of NK/T-cell lymphoma cells [3]: decreased
- animal's health status ([4]; OCI-LY19 in NSG mice, 40 mg/kg intraperitoneally twice weekly): good
- enlargement of lymphoma (tumor size) ([4]; OCI-LY19 in NSG mice, 40 mg/kg intraperitoneally twice weekly, Days 1-7, Figs. 15A-D): significantly suppressed
- signs of toxicity: weight loss or diarrhea ([4]; mouse, in vivo, ip, 40 mg/kg): no weight loss or diarrhea observed
- expression of immune activation-related genes such as INFγ (Z4739 cell line): increased
- expression of MYC (Z4739 cell line; Figs. 12A-C): decreased
- expression of MYC-related gene groups (Z4739 cell line; GSEA): decreased
- expression of other oncogenic genes such as those related to mTOR (Z4739 cell line; GSEA): decreased
- Sensitivity to BCV [5]: varied for each cell line
- viability of B-cell lymphoma cells [5]: decreased
- animal's health status ([6]; Z4739 in NSG mice, 40 mg/kg intraperitoneally twice weekly): good
- enlargement of the lymphoma (tumor size) ([6]; Z4739 in NSG mice, 40 mg/kg intraperitoneally twice weekly, Figs. 10A-D): significantly suppressed
- tumor volume ([6]; Z4739 in NSG mice, 40 mg/kg intraperitoneally twice weekly, between Day 0 and Day 21, Fig. 10A): almost no increase in tumor volume observed
- signs of toxicity: weight loss or diarrhea ([6]; mouse, in vivo, ip, 40 mg/kg): no significant weight loss or diarrhea was observed
